{"source": "patent US20130108717A1", "about": "“COMPOSITIONS FOR THE TREATMENT OF GYNAECOLOGICAL DISORDERS” (INDENA S.P.A., priority 2010, published 2013)", "type_in_all_cases": "cell-based", "key": {"Gardnerella vaginalis": {"test_system": "Gardnerella vaginalis", "experiment": "MIC, broth dilution (CLSI M11-A4), vaginally isolated strains"}, "Trichomonas vaginalis": {"test_system": "Trichomonas vaginalis", "experiment": "MIC on Diamond's medium, loss of motility, vaginally isolated strains"}, "Candida albicans": {"test_system": "Candida albicans", "experiment": "MIC, microdilution in broth (CLSI M27-A), vaginally isolated strains"}, "[1]": {"test_system": "Methicillin-resistant Staphylococcus aureus", "experiment": "MIC, micro-dilution in culture broth (CLSI M 7-A5), vaginally isolated strains"}}}
{"smiles": "CC1(C)[C@@H](O)CC[C@]2(C)[C@H]3C(=O)C=C4[C@@H]5C[C@@](C)(C(=O)O)CC[C@]5(C)CC[C@@]4(C)[C@]3(C)CC[C@@H]12", "note": "[18-beta-glycyrrhetic acid, 18β-glycyrrhetic acid]", "values": [{"measurement": "MIC", "setting": "Gardnerella vaginalis; Gardnerella vaginalis 1", "result": 667, "unit": "µg/mL"}, {"measurement": "MIC", "setting": "Gardnerella vaginalis; Gardnerella vaginalis 2", "result": 667, "unit": "µg/mL"}, {"measurement": "MIC", "setting": "Gardnerella vaginalis; Gardnerella vaginalis 3", "result": 333, "unit": "µg/mL"}, {"measurement": "MIC", "setting": "Gardnerella vaginalis; Gardnerella vaginalis 4", "result": 167, "unit": "µg/mL"}, {"measurement": "MIC", "setting": "Gardnerella vaginalis; Gardnerella vaginalis 5", "result": 667, "unit": "µg/mL"}, {"measurement": "MIC", "setting": "Gardnerella vaginalis; Gardnerella vaginalis 6", "result": 667, "unit": "µg/mL"}, {"measurement": "MIC", "setting": "Gardnerella vaginalis; Gardnerella vaginalis 7", "result": 167, "unit": "µg/mL"}, {"measurement": "MIC", "setting": "Gardnerella vaginalis; Gardnerella vaginalis 8", "result": 333, "unit": "µg/mL"}, {"measurement": "MIC", "setting": "Gardnerella vaginalis; Gardnerella vaginalis 9", "result": 333, "unit": "µg/mL"}, {"measurement": "MIC", "setting": "Gardnerella vaginalis; Gardnerella vaginalis 10", "result": 167, "unit": "µg/mL"}, {"measurement": "MIC", "setting": "Trichomonas vaginalis; Trichomonas vaginalis 1", "result": 150, "unit": "µg/mL"}, {"measurement": "MIC", "setting": "Trichomonas vaginalis; Trichomonas vaginalis 2", "result": 150, "unit": "µg/mL"}, {"measurement": "MIC", "setting": "Trichomonas vaginalis; Trichomonas vaginalis 3", "result": 150, "unit": "µg/mL"}, {"measurement": "MIC", "setting": "Trichomonas vaginalis; Trichomonas vaginalis 4", "result": 150, "unit": "µg/mL"}, {"measurement": "MIC", "setting": "Candida albicans; Candida albicans 1", "result": 667, "unit": "µg/mL"}, {"measurement": "MIC", "setting": "Candida albicans; Candida albicans 2", "result": 667, "unit": "µg/mL"}, {"measurement": "MIC", "setting": "Candida albicans; Candida albicans 3", "result": 667, "unit": "µg/mL"}, {"measurement": "MIC", "setting": "Candida albicans; Candida albicans 4", "result": 667, "unit": "µg/mL"}, {"measurement": "MIC", "setting": "Candida albicans; Candida albicans 5", "result": 333, "unit": "µg/mL"}, {"measurement": "MIC", "setting": "[1]; S. aureus Met R 1", "result": ">1333", "unit": "µg/mL"}, {"measurement": "MIC", "setting": "[1]; S. aureus Met R 2", "result": ">1333", "unit": "µg/mL"}, {"measurement": "MIC", "setting": "[1]; S. aureus Met R 3", "result": 1333, "unit": "µg/mL"}, {"measurement": "MIC", "setting": "[1]; S. aureus Met R 4", "result": 1333, "unit": "µg/mL"}, {"measurement": "MIC", "setting": "[1]; S. aureus Met R 5", "result": ">1333", "unit": "µg/mL"}]}
